Measured values reported in ChEMBL document CHEMBL1146507, “Antityrosinase principles and constituents of the petals of Crocus sativus” (J Nat Prod, 2004).
In brackets after ≈: the same amount, converted by molar mass.

Tests used:
[1] = test system: Radical scavenging activity; test: Antioxidant activity assessed as DPPH radical scavenging activity at 0.1 mg/mL; type: functional
[2] = molecular target: T1, Tyrosinase (Agaricus bisporus, UniProt O42713)
T1 sequence (O42713 whole entry): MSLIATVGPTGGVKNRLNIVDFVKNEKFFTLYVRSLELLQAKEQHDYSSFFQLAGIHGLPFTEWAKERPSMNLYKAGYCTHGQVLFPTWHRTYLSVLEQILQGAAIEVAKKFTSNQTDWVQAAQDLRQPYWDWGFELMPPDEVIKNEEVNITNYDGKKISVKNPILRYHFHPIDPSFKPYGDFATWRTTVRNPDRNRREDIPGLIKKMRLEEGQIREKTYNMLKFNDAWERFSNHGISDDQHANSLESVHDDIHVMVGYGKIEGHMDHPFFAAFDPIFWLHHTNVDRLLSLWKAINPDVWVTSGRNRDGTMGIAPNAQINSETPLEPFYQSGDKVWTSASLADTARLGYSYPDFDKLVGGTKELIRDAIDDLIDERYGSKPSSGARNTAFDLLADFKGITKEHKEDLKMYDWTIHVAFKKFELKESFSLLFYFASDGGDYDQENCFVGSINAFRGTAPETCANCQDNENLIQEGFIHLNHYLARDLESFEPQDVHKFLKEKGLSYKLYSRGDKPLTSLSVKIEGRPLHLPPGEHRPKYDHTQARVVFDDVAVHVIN
Description: Inhibition of mushroom tyrosinase by spectrophotometry

[3] = test system: Radical scavenging activity; test: Antioxidant activity assessed as DPPH radical scavenging activity; type: functional

Structure (SMILES) | Activity [1] | IC50 [2] | also measured
O=c1c(O)c(-c2ccc(O)cc2)oc2cc(O[C@@H]3O[C@H](CO)[C@@H](O)[C@H](O)[C@H]3O)cc(O)c12 | 91.2% |  | 
CC1=C(CO)C(C)(C)CC(=O)C1O (configuration not stated) [CROCUSATIN L] |  | 1000 µM | 
O=C(O)c1ccc(O)c(O)c1 | 89.9% |  | 
CC1=C(C=O)C(C)(C)[C@@H](O)[C@H](O)C1 [CROCUSATIN K] |  | 260 µM | 
O=c1c(O)c(-c2ccc(O)cc2)oc2cc(O)cc(O)c12 | 86.5% |  | 
CC1=CC(=O)CC(C)(C)C1O (configuration not stated) |  | 1100 µM | 
Cc1c(C)c2c(c(C)c1O)CC[C@@](C)(CCC[C@H](C)CCC[C@H](C)CCCC(C)C)O2 [ALPHA-TOCOPHEROL] |  |  | IC50 [3]: 150 µg/mL (≈ 348 µM)
